According to publication PMC2758911 (Clinical cancer research : an official journal of the …, 2009):

Legend:
[1] = system: relapsed/refractory multiple myeloma patients
[2] = system: QT interval; settings: cited from earlier work
[3] = system: relapsed and refractory myeloma patients; settings: cited from earlier work
[4] = Vorinostat serum pharmacokinetics, day 4 of cycle 1; type: in vivo, human; settings: for Tmax / half-life / AUC(0-inf) / Cmax: human, po
[5] = single patient with grade 3 event, baseline QTc 394 msec
[6] = vorinostat 400 mg daily, ECG 3 hours after vorinostat

CC(C)C[C@H](NC(=O)[C@H](Cc1ccccc1)NC(=O)c1cnccn1)B(O)O [bortezomib]
Bortezomib dose at the MTD of the combination ([1]; days 1, 4, 8, 11 of 21-day cycle, with vorinostat 400 mg daily for 8 days): 1.3 mg/m2
Patients in whom bortezomib was decreased from 1.3 mg/m2 to 1 mg/m2 ([1]; human, in vivo): 8 patients

Cc1[nH]c2ccccc2c1CCNCc1ccc(/C=C/C(=O)NO)cc1 [panobinostat]
QTc prolongation in phase I and/or II studies [2]: have shown evidence of QTc prolongation

O=C(CCCCCCC(=O)Nc1ccccc1)NO [vorinostat, suberoylanilide hydroxamic acid]
Patients who required a decrease in vorinostat dose for grade 3 diarrhea ([1]; in vivo): 3 patients
Maximum tolerated dose (MTD) of vorinostat ([1]; oral once daily for 8 days (days 4–11) every 21 days, with bortezomib 1.3 mg/m2 days 1, 4, 8, 11): 400 mg
cQT after vorinostat [1, 5]: 633 ms
cQT at 24 hours [1, 5]: 389 ms
Prolongation of QTc grade 1, patients [1, 6]: 7
Prolongation of QTc grade 2, patients [1, 6]: 2
QTc prolongation in phase I and/or II studies [2]: have shown evidence of QTc prolongation
Tolerability and disease stabilization ([3]; heavily pre-treated population): favorable tolerability and evidence of disease stabilization
Single-agent activity ([3]; relapsed and refractory myeloma patients): failed to establish significant single-agent activity
Cmax at 400 mg versus 500 mg ([4]; Student t-test, p=0.35): not statistically different
Dose proportionality of vorinostat pharmacokinetics (AUC) ([4]; doses 100–500 mg): the increase was greater than proportional
Serum Cmax versus dose ([4]; doses 100–500 mg): reached a plateau above 400 mg
Dose proportionality of vorinostat pharmacokinetics (AUC) ([4]; doses 100–500 mg, listed as Vorinostat): non-linear
Tmax ([4]; serum): 0.5 to 6 h
half-life ([4]; serum): 0.8 to 7.6 h
AUC(0-inf) ([4]; serum, 100 mg): 760 µM·h
Cmax ([4]; serum, 100 mg): 310 µM
Tmax ([4]; serum, 100 mg): 1.3 h
half-life ([4]; serum, 100 mg): 1.3 h
AUC(0-inf) ([4]; serum, 200 mg): 2030 µM·h
Cmax ([4]; serum, 200 mg): 650 µM
Tmax ([4]; serum, 200 mg): 1.3 h
AUC(0-inf) ([4]; serum, 400 mg): 5130 µM·h
Cmax ([4]; serum, 400 mg): 1420 µM
AUC(0-inf) ([4]; serum, 500 mg): 8100 µM·h
Cmax ([4]; serum, 500 mg): 1330 µM
Tmax ([4]; serum, 500 mg): 3.8 h
half-life ([4]; serum, 500 mg): 4.4 h
Slope of Cl/F (L/min) versus dose (mg) ([4]; linear regression, p=0.001, CL/F decreased with increasing dose): −0.014
t1/2, mean ([4]; vorinostat 200 mg BID oral (n=3), serum, day 4 cycle 1, with bortezomib): 2.4 h
